Patent publication US20180106727A1, “ULTRA-HIGH-SENSITIVE ASSAY OF PROTEIN AND NUCLEIC ACID AND KIT, AND NOVEL ENZYME SUBSTRATE” (priority 2011, published 2018)
Where two headings read alike, the source gives them in different places.

Tests used:
β-galactosidase = β-galactosidase (Escherichia coli, UniProt P00722); details: β-Gal assay
Procedure: 0.1 M pyrophosphate buffer solution (pH 9.0); 1.2 mM thio-NAD; 3.6 mM NADH; 40 U/mL 3α-hydroxysteroid dehydrogenase
To a flat-bottomed microplate well, 25 μL of a phosphate buffer solution (pH 7.3) containing the standard substance (β-galactosidase) in a range of 0 to 200 pg/ml was added, and subsequently, 25 μL of Reaction Test Solution A was added to the well, respectively. The reaction solution was mixed, and the microplate was incubated at 37° C. for 60 minutes. Then, 50 μL of Reaction Test Solution B was added to each well, respectively, and the absorbance was measured for 30 minutes using a 405 nm filter with a microplate reader (MTP-500 manufactured by CORONA CORPORATION) while warming the microplate to 37° C. The amount of the absorbance change for 30 minutes was plotted with respect to the concentrations of the standard substance.
To a flat-bottomed microplate well, 50 μL of a phosphate buffer solution (pH 7.7) containing the standard substance (β-galactosidase) in a range of 0 to 250 pg/ml was added, and subsequently, 50 μL of Reaction Test Solution was added to each well, respectively. The absorbance was measured for 120 minutes using a 405 nm filter with a microplate reader (MTP-500 manufactured by CORONA CORPORATION) while warming the microplate to 37° C. The amount of the absorbance change for 120 minutes was plotted with respect to the concentrations of the standard substance.
0.1 M pyrophosphate buffer solution (pH 9.0); 4.8 mM thio-NAD; 0.4 mM NADH; 40 U/mL 3α-hydroxysteroid dehydrogenase
To a flat-bottomed microplate well, 25 μL of a phosphate buffer solution (pH 7.5) containing the standard substance (β-galactosidase) in a range of 0 to 200 pg/mL was added, and subsequently, 25 μL of Reaction Test Solution A was added to the well, respectively. The reaction solution was mixed, and the microplate was incubated at 37° C. for 60 minutes. Then, 50 μL of Reaction Test Solution B was added to each well, respectively, and the absorbance was measured for 30 minutes using a 405 nm filter with a microplate reader (MTP-500 manufactured by CORONA CORPORATION) while warming the microplate to 37° C. The amount of the absorbance change for 30 minutes was plotted with respect to the concentrations of the standard substance.
0.1 M pyrophosphate buffer solution (pH 9.8); 1.2 mM thio-NAD; 1 mM NADH; 40 U/mL 3α-hydroxysteroid dehydrogenase
To a flat-bottomed microplate well, 25 μL of a phosphate buffer solution (pH 7.5) containing the standard substance (β-galactosidase) in a range of 0 to 200 pg/mL was added, and subsequently, 25 μL of Reaction Test Solution A was added to the well, respectively. The reaction solution was mixed, and the microplate was incubated at 37° C. for 60 minutes.

[1] = tested on: 3α-hydroxysteroid dehydrogenase; test: Rotation numbers of thio-NAD cycling reactions with 3α-hydroxyandrostanes; format: biochemical
Procedure: The cycling system using thio-NAD(P) in the enzymatic cycling system is a unique cycling system that appeared relatively recently. With this system, the cycling is performed that is, thio-NAD(P)/thio-NAD(P)H using dehydrogenase (DH) with NAD(P)/NAD(P)H as a co-enzyme under conditions of coexistence of NAD(P)/NAD(P)H and its analog, and the amplification and the quantification are performed with thio-NAD(P)H (maximum absorption wavelength: 400 nm, molar absorption coefficient=11,900) as a substrate of dehydrogenase. The principle for measurement of the thio-NAD(P)cycling system is as described below.

[2] = tested on: 3α-hydroxysteroid dehydrogenase; test: Dehydrogenation reaction of androsterone, reaction rate with thio-NAD versus NAD as co-enzyme; format: biochemical
Source text: The substrate for the cycling is preferably those having fast enzyme reaction rate (having high activity for the substrate) and reacting even at a low concentration (having low Km value). In addition, a desirable property as the dehydrogenase is the reaction rate when using thio-NAD(P) as a co-enzyme. In the dehydrogenation reaction of androsterone by other many dehydrogenases, the reaction rate when thio-NAD is used as a co-enzyme is within several % of the reaction rate when NAD is used, while with 3α-hydroxysteroid dehydrogenase, the reaction rate with thio-NAD is about 59% of the reaction rate with NAD. Thus, 3α-hydroxysteroid dehydrogenase has a desirable property as the cycling enzyme of the present invention. Furthermore, widely used alkaline phosphatase (ALP) can be used as the labeling enzyme to be combined, and the combination with alkaline phosphatase is preferable also in a point of easy synthesis of a phosphate ester of an androsterone derivative at the position 3 that is a substrate of alkaline phosphatase.

[3] = conventional substrate, no cycling method printed
[4] = relative to 5α-Androsterone = 100
[5] = thio-NAD cycling, compound as substrate

β-galactosidase, sequence (P00722 2-1024): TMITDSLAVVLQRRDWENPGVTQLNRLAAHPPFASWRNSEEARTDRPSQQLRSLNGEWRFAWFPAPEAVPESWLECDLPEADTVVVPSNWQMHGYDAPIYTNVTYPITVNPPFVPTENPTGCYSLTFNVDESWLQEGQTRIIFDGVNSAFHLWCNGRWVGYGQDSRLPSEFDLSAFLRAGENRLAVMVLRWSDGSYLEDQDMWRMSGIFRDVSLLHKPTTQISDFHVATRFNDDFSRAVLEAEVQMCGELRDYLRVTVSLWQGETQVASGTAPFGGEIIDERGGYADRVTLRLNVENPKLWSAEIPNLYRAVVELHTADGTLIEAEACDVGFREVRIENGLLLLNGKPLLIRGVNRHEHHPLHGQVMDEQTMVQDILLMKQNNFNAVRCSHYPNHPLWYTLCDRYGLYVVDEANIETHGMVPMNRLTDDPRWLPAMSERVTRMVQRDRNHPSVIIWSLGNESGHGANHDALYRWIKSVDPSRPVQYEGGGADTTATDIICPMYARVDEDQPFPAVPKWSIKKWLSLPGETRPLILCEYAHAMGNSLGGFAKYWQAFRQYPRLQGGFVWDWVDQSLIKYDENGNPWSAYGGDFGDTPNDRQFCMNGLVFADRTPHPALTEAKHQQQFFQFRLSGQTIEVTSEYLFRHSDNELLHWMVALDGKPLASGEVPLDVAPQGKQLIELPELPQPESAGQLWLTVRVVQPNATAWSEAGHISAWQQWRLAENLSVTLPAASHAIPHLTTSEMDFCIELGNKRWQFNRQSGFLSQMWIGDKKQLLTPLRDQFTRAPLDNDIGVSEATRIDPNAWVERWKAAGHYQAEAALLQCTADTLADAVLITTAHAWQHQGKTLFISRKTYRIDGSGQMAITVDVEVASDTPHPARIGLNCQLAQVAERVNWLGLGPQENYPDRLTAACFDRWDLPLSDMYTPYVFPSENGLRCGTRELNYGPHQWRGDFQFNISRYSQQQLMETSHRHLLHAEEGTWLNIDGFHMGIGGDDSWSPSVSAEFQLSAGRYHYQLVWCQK

Cc1cc(=O)oc2cc(O[C@@H]3O[C@H](CO)[C@H](O)[C@H](O)[C@H]3O)ccc12 [4-MUG, reference compound]
Detection limit (β-galactosidase; [3]): 9.76e-18 mol
Quantification limit (β-galactosidase; [3]): 3.25e-17 mol

C=C1CC[C@H]2[C@@H]3CC[C@H]4C[C@H](O)CC[C@]4(C)[C@H]3CC[C@]12C [5α-17-CH2, 3α-Hydroxy-17-methylene-5α-Androstane]
Rotation number, Relative value (%) [1, 4]: 49%
Rotation number of cycling reaction [1, 5]: 308 Cycle/min

C[C@H]1CC[C@H]2[C@@H]3CC[C@H]4C[C@H](O)CC[C@]4(C)[C@H]3CC[C@]12C [5α-17-CH3, 3α-Hydroxy-17β-methyl-5α-Androstane]
Rotation number, Relative value (%) [1, 4]: 32%
Rotation number of cycling reaction [1, 5]: 200 Cycle/min

C[C@@]12CCC[C@H]1[C@@H]1CC[C@H]3C[C@H](O)CC[C@]3(C)[C@H]1CC2 [5α-17-deoxo, 3α-Hydroxy-5α-Androstane]
Rotation number, Relative value (%) [1, 4]: 39%
Rotation number of cycling reaction [1, 5]: 241 Cycle/min

C[C@]12CC[C@@H](O[C@@H]3O[C@H](CO)[C@H](O)[C@H](O)[C@H]3O)C[C@@H]1CC[C@@H]1[C@@H]2CC[C@]2(C)C(=O)CC[C@@H]12 [5α-AG, 5α-androsterone 3-β-galactoside]
Detection limit (β-galactosidase; Two-steps): 3.89e-19 mol
Quantification limit (β-galactosidase; Two-steps): 1.3e-18 mol

C[C@]12CC[C@@H](O)C[C@@H]1CC[C@@H]1[C@@H]2CC[C@]2(C)C(=O)CC[C@@H]12 [5α-Androsterone, reference compound]
Rotation number, Relative value (%) [1]: 100%

C[C@]12CCC(=O)C[C@@H]1CC[C@@H]1[C@@H]2CC[C@]2(C)[C@@H](O)CC[C@@H]12 [5α-DHT, 5α-Dihydrotestosterone, reference compound]
Rotation number of cycling reaction [1]: 535 Cycle/min
Rotation number, Relative value (%) [1]: 86%

C[C@H]1CC[C@H]2[C@@H]3CC[C@@H]4C[C@H](O)CC[C@]4(C)[C@H]3CC[C@]12C [5β-17-CH3, 3α-Hydroxy-17β-methyl-5β-Androstane]
Rotation number, Relative value (%) [1, 4]: 18%
Rotation number of cycling reaction [1, 5]: 114 Cycle/min

CO[C@H]1CC[C@H]2[C@@H]3CC[C@@H]4C[C@H](O)CC[C@]4(C)[C@H]3CC[C@]12C [5β-17β-OCH3]
Rotation number, Relative value (%) [1, 4]: 74%
Rotation number of cycling reaction [1, 5]: 458 Cycle/min

C[C@]12CC[C@@H](O[C@@H]3O[C@H](CO)[C@H](O)[C@H](O)[C@H]3O)C[C@H]1CC[C@@H]1[C@@H]2CC[C@]2(C)C(=O)CC[C@@H]12 [5β-AG, 5β-Androsterone-3β-D-Galactoside]
Detection limit (β-galactosidase; One-step): 3.31e-19 mol
Quantification limit (β-galactosidase; One-step): 1.1e-18 mol
Detection limit (β-galactosidase; Two-steps): 7.48e-20 mol
Quantification limit (β-galactosidase; Two-steps): 2.49e-19 mol

C[C@]12CC[C@@H](O)C[C@H]1CC[C@@H]1[C@@H]2CC[C@]2(C)C(=O)CC[C@@H]12 [5β-Androsterone, reference compound]
Rotation number of cycling reaction [1]: 384 Cycle/min
Rotation number, Relative value (%) [1]: 62%

CO[C@H]1CC[C@H]2[C@@H]3CC[C@@H]4C[C@H](O[C@@H]5O[C@H](CO)[C@H](O)[C@H](O)[C@H]5O)CC[C@]4(C)[C@H]3CC[C@]12C [17-OMe 5β-AG]
Detection limit (β-galactosidase; One-step): 3.21e-19 mol
Quantification limit (β-galactosidase; One-step): 1.07e-18 mol
Detection limit (β-galactosidase; Two-steps): 1.09e-19 mol
Quantification limit (β-galactosidase; Two-steps): 3.64e-19 mol

C[C@H](CCC(=O)NCC(=O)O)[C@H]1CC[C@H]2[C@@H]3[C@H](O)C[C@@H]4C[C@H](O)CC[C@]4(C)[C@H]3CC[C@]12C [Glycochenodeoxycholate, Sodium glycochenodoxycholate, reference compound]
Rotation number, Relative value (%) [1, 4]: 21%
Rotation number of cycling reaction [1, 5]: 129 Cycle/min

O=[N+]([O-])c1ccccc1O[C@@H]1O[C@H](CO)[C@H](O)[C@H](O)[C@H]1O [ONPG, o-Nitrophenyl β-D-Galactopyranoside, reference compound]
Detection limit (β-galactosidase; [3]): 4.5e-17 mol
Quantification limit (β-galactosidase; [3]): 1.5e-16 mol

C[C@]12CC[C@@H](OP(=O)(O)O)C[C@@H]1CC[C@@H]1[C@@H]2CC[C@]2(C)C(=O)CC[C@@H]12 [androsterone 3-phosphate, reference compound]
Effect of the substrate on the cycling reaction [1]: inhibition of the substrate on the cycling reaction

NC(=S)c1ccc[n+]([C@@H]2O[C@H](COP(=O)([O-])OP(=O)(O)OC[C@H]3O[C@@H](n4cnc5c(N)ncnc54)[C@H](O)[C@@H]3O)[C@@H](O)[C@H]2O)c1 [thio-NAD]
Reaction rate with thio-NAD relative to the reaction rate with NAD [2]: about 59%
